Our source for the TGI and GI50 values is PubChem BioAssay (NCI).

Values joined by “and” are separate entries in the source; they are usually repeats but may differ in a detail not shown here. Identical values can stand only once.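 Cultured in 96-well plates, cells were exposed to test compound for 48 hours across five concentrations. GI50 is the concentration that inhibits growth by half. TGI marks complete inhibition of growth.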

One may read the TGI as the concentration giving total growth inhibition. A high value points to less potent growth arrest. One may read the GI50 as the concentration giving 50% growth inhibition.

Assay in all cases: DTP human tumour cell line panel, 48 h
In test [1] the test system is ACHN renal.
Test [2] has as its system OVCAR-5 ovarian.
Test [3] deals with KM12 colon.
Test [4] concerns UACC-62 melanoma.
Test [5] has as its system KM20L2 colon.
The subject of test [6] is K-562 leukemia.
The subject of test [7] is UACC-257 melanoma.
Test [8] concerns HOP-18 NSCLC.
The subject of test [9] is SR leukemia.
Test [10] has as its system T-47D breast.

Consider `CCCCCCCC1(c2ccc(N)cc2)CCC(=O)NC1=O` (stereo not given), for which the TGI in test [1] was 67.3 µM; in test [2] it was more than 100 µM; in test [3] it was more than 100 µM; in test [4], more than 100 µM; in test [5], more than 100 µM; in test [6], more than 100 µM. The compound also displayed a TGI in test [7] of more than 100 µM.

On to `CCC(C)CC(C)CC(C)/C=C(\C)C1=C(C)CC(C)(O)O1` (stereo not given), for which the concentration for total growth inhibition (TGI) in test [1], in test [4], in test [8], in test [6] and in test [7] was more than 100 µM throughout.

For `O=C(C(=O)n1ncc(Cl)c(Cl)c1=O)n1ncc(Cl)c(Cl)c1=O`, the TGI in test [1] was 32.9 µM; in test [2], more than 100 µM; in test [3], more than 100 µM; in test [4], 32.2 µM; in test [5], more than 85.8 µM; in [8], 67 µM. For the same compound, the TGI in test [6] was more than 100 µM; in [7], 35.7 µM.

Take `COCCOc1cc(C)cc(/C=C(C)/C=C/C2=C(C)CCCC2(C)C)n1`: the TGI in [1], in test [2], in [3], in test [4], in test [8] and in test [9] was more than 100 µM in each case. Moreover, the TGI in test [7] is more than 100 µM.

In the case of `CC(C)c1cc(C(C)C)c(S(=O)(=O)N=[N+]=[N-])c(C(C)C)c1`, the TGI in test [1], in [2], in [3], in [4], in [5] and in test [6] was more than 100 µM throughout. In addition, the TGI in [9] and in [7] was more than 100 µM throughout.

With `COc1ccc(C2=Nc3ccccc3SC(C)C2)cc1OC` (stereo not given), the TGI in test [1] turned out to be 58.1 µM; in [2], 52.6 µM; in test [3], 36.3 µM; in test [4] it was 32.4 µM; in test [5] it was 33.6 µM; in [6], 56.6 µM. Further, the TGI in test [9] came out at 57.4 µM; in test [7], 49.6 µM.

On to `Cc1ccc2nc(NC(=O)C(=O)C(C#N)c3ccc(Cl)cc3)sc2c1` (stereo not given), for which the TGI in test [1], in [2], in [3], in [4], in [5] and in test [8] was more than 50 µM in each case. For the same compound, the TGI in test [7] is more than 50 µM.

Regarding `COc1ccc2oc3c(OC)c(OC)c(OC)cc3c(=O)c2c1`, the concentration for total growth inhibition (TGI) in test [1], in test [2], in [4], in [5], in test [8] and in test [6] was more than 100 µM throughout. Also, the TGI in test [7] is more than 100 µM.

Turning to `Cc1ccc(N=C[N-]c2ccc(C)cc2)cc1.Cc1ccc(N=C[N-]c2ccc(C)cc2)cc1.O=C([O-])C(F)(F)F.O=C([O-])C(F)(F)F.[OH3+].[OH3+].[Rh+2].[Rh+2]`, the GI50 in [1] is 44.7 µM; in test [2], more than 100 µM; in [3], 35 µM; in test [4], 32.4 µM; in test [5], 39.9 µM; in test [8], 27.7 µM. The GI50 in test [6] is 25.4 µM; in test [7], 64.7 µM. Also, the TGI was more than 100 µM in [1]; more than 100 µM in test [2]; more than 100 µM in [3]; 87.9 µM in test [4]; more than 100 µM in test [5]; 71.4 µM in test [8]. The TGI in test [6] is 67.1 µM; in [7], more than 100 µM.

As to `COc1cc2c(c(OC)c1OC)-c1ccc(SC)c(=O)cc1[C@@H](NCc1ccc([N+](=O)[O-])cc1)CC2`, the TGI in [1] was more than 100 µM; in [2], more than 100 µM; in [3] it was 0.0341 µM; in test [4] it was 51.2 µM; in test [5], 0.00435 µM; in [8] it was more than 100 µM. In addition, the values for the TGI in test [6] and in test [7] were 37.5 µM and more than 100 µM, respectively. In addition, the GI50 in test [2] was more than 100 µM; in test [8], more than 100 µM; in test [7], 0.0771 µM.

`C#Cc1cccc(Nc2nc(Cl)nc3cc(NC(=O)CCl)ccc23)c1`: the GI50 in test [1] is 1.48 µM; in [2] it was 1.41 µM; in test [10] it was 0.556 µM; in test [3], 1.13 µM; in [4], 0.82 µM; in [6] it was 0.792 µM. Besides, the GI50 was 0.542 µM in test [9] and 2.36 µM in [7]. Moreover, the TGI in [1] turned out to be 4.63 µM; in [2] it was 4.45 µM; in test [10], 1.65 µM; in test [3], 4.22 µM; in test [4], 3.26 µM; in test [6], 3.03 µM. For the same compound, the TGI in test [9] stood at 1.68 µM; in test [7], 5.82 µM.

With `CCOC(=O)C(Cc1ccc(N(CCCl)CCCl)cc1)NC(=O)C(Cc1ccccc1)NC=O` (stereo not given), the TGI was 0.105 µM in [1]; 0.548 µM in test [2]; 0.241 µM in test [10]; 0.638 µM in [3]; 0.254 µM in [4]; 0.365 µM in test [6]. Besides, the TGI in [9] was 0.824 µM; in test [7], 0.54 µM.

Take `CC(C)c1cccc(C(C)C)c1N1C(=O)C(=O)C(c2nc3ccccc3o2)C(=O)C1=O`: the TGI in test [1], in [2], in test [3], in [4], in [5] and in [6] was more than 100 µM throughout. The compound also returned a concentration for total growth inhibition (TGI) in test [7] of more than 100 µM.

On to `O=C(O)CCNS(=O)(=O)c1ccc2ccccc2c1`, for which the TGI in [1], in test [2], in test [3], in test [4], in [5] and in [8] was more than 100 µM each time. Further, the TGI in [6] and in [7] was more than 100 µM throughout.

With `CCCCCCSSC(=S)N(CC)CC`, the GI50 in test [1] is 20.1 µM; in [2], 20.5 µM; in test [10], 25.4 µM; in [3], 15.2 µM; in test [4], 17.2 µM; in test [6], 14.7 µM. The results for the concentration for 50% growth inhibition (GI50) in [9] and in test [7] were 0.0589 µM and 48.3 µM, respectively. The TGI in test [1] is 41.7 µM; in test [2], 35.9 µM; in [10], more than 100 µM; in test [3], 32.1 µM; in test [4] it was 36.9 µM; in test [6] it was 39.5 µM. In addition, the TGI is 29.1 µM in [9] and more than 100 µM in [7].

In the case of `Cc1c(C#N)cccc1[C@@H](C)Nc1nnc(C)c2cnc(N3CCOCC3)cc12`, the GI50 in [1] is 21.4 µM; in test [2] it was 42.2 µM; in test [10], 18.5 µM; in [3] it was 6.61 µM; in test [4] it was 30.5 µM; in test [6], 0.367 µM. Moreover, the GI50 in test [9] is 10.7 µM; in [7] it was 26.4 µM. The TGI in test [1] is more than 100 µM; in test [2] it was more than 100 µM; in test [10], 81.3 µM; in [3] it was more than 100 µM; in [4], more than 100 µM; in test [6], more than 100 µM. Also, the values for the concentration for total growth inhibition (TGI) in test [9] and in test [7] were 92.1 µM and 94.5 µM, respectively.

`COc1ccc(-c2cncn2-c2cc(OC)c(OC)c(OC)c2)cc1`: the GI50 is 0.366 µM in test [1]; 0.318 µM in test [2]; 3.12 µM in test [10]; 0.0224 µM in [3]; 0.124 µM in test [4]; 0.443 µM in [6]. The GI50 was 2.09 µM in [9] and 6.73 µM in [7]. The TGI in [1] is 49.4 µM; in [2] it was more than 100 µM; in [10] it was more than 100 µM; in test [3] it was 1.53 µM; in test [4], more than 33.7 µM; in [6], more than 100 µM. Further, the figures for the TGI in test [9] and in [7] were 6.59 µM and more than 86.9 µM, respectively.

Turning to `COc1ccc(-c2cc3c(C)nc(N)nc3n(C3CCC(OCCO)CC3)c2=O)cn1` (stereo not given), the GI50 in [1] is 0.0971 µM and 0.0973 µM; in test [2] it was 0.0734 µM and 0.0489 µM; in test [10] it was 0.0131 µM and 0.0211 µM; in test [3] it was 0.231 µM and 0.209 µM; in test [4] it was 0.02 µM and 0.046 µM; in [6], 0.593 µM and 0.36 µM. For the same compound, the GI50 in test [9] was 0.257 µM and 0.0805 µM; in test [7], 0.0586 µM and 0.0423 µM. In addition, the TGI in [1] is more than 6.33 µM; in [2] it was 1.95 µM and 1.02 µM; in test [10] it was 0.0735 µM and 0.147 µM; in [3], 3.9 µM and 2.92 µM; in [4], 0.165 µM and 0.365 µM; in [6] it was more than 100 µM. Also, the concentration for total growth inhibition (TGI) in test [9] is > 10 µM and 1.44 µM; in test [7], 0.414 µM and 0.336 µM.

On to `COC1=CC(C2c3cc4c(cc3[C@@H](Nc3ccc(F)cc3)C3COC(=O)[C@H]23)OCO4)=CC(=O)C1=O` (stereo not given in full), for which the TGI is 23.4 µM in [1]; 98.2 µM in test [2]; 34.5 µM in test [3]; 20.7 µM in [4]; more than 74.6 µM in test [5]; more than 49.2 µM in [6]. The TGI in test [9] is more than 23.6 µM; in [7] it was more than 63.9 µM.
